# System: Xylella fastidiosa
# Details: in vivo
sequence,measurement,value
MAKWKLFKKIGIGFKKAAHVGKAALTK [B-passerin],PD resistance index,higher than that of tolerant control plants
same,resistance to X. fastidiosa conferred in transgenic grape plants,significantly higher level of resistance
